Test results reported in patent publication US8802693B1, “Azaadamantane derivatives and methods of use” (priority 2011, dated 2014).

Columns and labels:
Format in all cases: in vivo, human
[1] = system: subjects with mild-to-moderate Alzheimer's disease; experiment: Phase 2a Clinical Study A: ADAS-cog (13-item) total score; details: for ADAS-cog (13-Item) Total Score Observed Mean (SD) Final: final evaluation, 12-week treatment
Protocol: (§1) A Phase 2a proof-of-concept (POC) study in subjects with mild-to-moderate dementia of Alzheimer type was conducted. The study was a randomized, double-blind, placebo- and active-controlled, multicenter study designed to evaluate the efficacy and safety of Compound A (ABT-126) in subjects diagnosed with mild-to-moderate Alzheimer's disease, defined as meeting National Institute of Neurological and Communicative Disorders and Stroke/Alzheimer's Disease and Related Disorders Association (NINCDS/ADRDA) criteria for probable AD. […] Subjects were randomized in an equal ratio to one of four treatment groups (placebo, 5 mg Compound A, 25 mg Compound A, or donepezil) for a 12-week treatment period. The primary efficacy measure was the Alzheimer's Disease Assessment Scale—cognitive subscale (ADAS-Cog). Subjects were generally in good health and any chronic medical conditions were stable during the time of screening. Subjects were not taking other medication for Alzheimer's disease.
(§2) The study was a Phase 2, randomized, double-blind, placebo- and active-controlled, multicenter study designed to evaluate the dose-response relationship and safety of two doses of Compound A in subjects diagnosed with mild to moderate AD, defined as meeting NINCDS/ADRDA criteria for probable AD.
(§3) The study consisted of a Screening Period of up to 28 days, a 12-week treatment period, and a post-treatment period. The screening period consisted of three visits: Screening Visit 1, Screening Visit 2, and Day −1. Upon completion of Day −1 procedures, eligible subjects were randomized through an Interactive Voice Response/Interactive Web-Based (IVR/IWB) system. Subjects were randomized in an equal ratio to one of four treatment groups (placebo, 5 mg Compound A, 25 mg Compound A, or donepezil).
(§4) Each subject was instructed to take study drug once-daily in the morning for 12 weeks. Subjects randomized to donepezil took 5 mg donepezil QD for the first 4 weeks and began 10 mg donepezil QD at Week 4 through the remainder of the study. The subject and investigator were blinded to the treatment assignment throughout the study.
(§5) The primary efficacy measure was the Alzheimer's Disease Assessment Scale-cognitive subscale (ADAS-cog). The ADAS-cog was designed to assess the cognitive impairments most common in AD. The ADAS-cog is a subscale of the ADAS, which focuses on cognitive functioning and memory. Two versions were used in the study: an 11-item version and an expanded (13-item) version. The 11-item version of the ADAS-cog was the primary endpoint measure in this study. ADAS-Cog (13-item) was administered throughout the study and the primary efficacy variable was considered the change from baseline to final evaluation on the ADAS-cog total score (11-item).
The 13-item ADAS-cog is comprised of the 11-item ADAS-cog with two additional items (Delayed Word Recall and a Number Cancellation Test) that are designed to assess attention and concentration. The Delayed Word Recall Test (range from 0 to 10) was an addition to the Word Recall Test to enhance sensitivity of the instrument in assessing cognition functioning on patients with mild AD. The Number Cancellation Test (range from 0 to 5) was reliable and sensitive to a broad range of dementia severity, and was recommended as a useful addition to the 11-item ADAS-cog. The total score of the 13-item ADAS-cog ranges from 0 to 85, with a higher score representing greater impairment. The ADAS-cog (13-item) was administered by a certified rater at Screening Visit 1, Screening Visit 2, and Day-1, as well as Weeks 4, 8, and 12 during the study.

[2] = system: subjects with mild-to-moderate Alzheimer's disease; experiment: Phase 2a Clinical Study A: ADAS-cog (11-item) total score; details: for ADAS-cog (11-Item) Total Score Observed Mean (SD) Final: final evaluation, 12-week treatment; for efficacy in treatment of core symptoms of Alzheimer's disease in human patients (summary in words): Phase 2a study, dose not stated
Protocol: as §1, §2, §3, §4
(§6) Subjects completed 4 visits during the treatment period at Week 2, Week 4, Week 8 and Week 12. Subjects returned to the study site for a follow-up visit approximately 2 weeks after the Week 12 or premature discontinuation visit for a safety evaluation. In addition, study site personnel contacted each subject's caregiver by telephone approximately 30 days after the subject's last dose of study drug to ascertain the subject's safety status.
as §5
The 11-item ADAS-cog includes the following tests: Word Recall, Commands, Constructional Praxis, Naming Objects and Fingers, Ideational Praxis, Orientation, Word Recognition, Remembering Test Instructions, Comprehension of Spoken Language, Spoken Language Ability, and Word Finding Difficulty. The total score of the 11-item ADAS-cog ranges from 0 to 70, with a higher score representing greater impairment.
The primary efficacy variable was the change from baseline to the final observation on the ADAS-cog (11-item) total score. The primary efficacy analysis was carried out using an ANCOVA model with treatment and study site as the main effects and baseline score as the covariate. […]

[3] = system: subjects with mild-to-moderate Alzheimer's disease; experiment: Phase 2a Clinical Study A: safety and tolerability
Protocol: as §1, §2, §4, §6

[4] = 5 mg QD, ANCOVA, baseline to final evaluation
[5] = 25 mg QD, ANCOVA, baseline to final evaluation

c1ccc(-c2nnc(O[C@@H]3C4CC5C[C@H]3CN(C5)C4)s2)cc1 [Compound A, (4s)-4-(5-phenyl-1,3,4-thiadiazol-2-yloxy)-1-azatricyclo[3.3.1.1^3,7]decane]
ADAS-cog (13-Item) Total Score Difference From Placebo LS Mean (SE) of Difference [1, 4]: −0.13 (1.03)
ADAS-cog (13-Item) Total Score LS Mean (SE) of Change [1, 4]: −0.90 (0.73)
ADAS-cog (13-Item) Total Score Observed Mean (SD) change ([1]; 5 mg QD, Change to Week 4): −0.67 (4.31)
ADAS-cog (13-Item) Total Score Observed Mean (SD) change ([1]; 5 mg QD, Change to Week 8): −0.76 (5.88)
ADAS-cog (13-Item) Total Score Observed Mean (SD) change ([1]; 5 mg QD, Change to Week 12): −1.20 (6.36)
ADAS-cog (13-Item) Total Score Difference From Placebo LS Mean (SE) of Difference ([1]; 5 mg QD, MMRM, Week 4): −0.30 (0.73)
ADAS-cog (13-Item) Total Score LS Mean (SE) of Change from Baseline ([1]; 5 mg QD, MMRM, Week 4): −0.30 (0.52)
ADAS-cog (13-Item) Total Score Difference From Placebo LS Mean (SE) of Difference ([1]; 5 mg QD, MMRM, Week 8): −0.29 (0.95)
ADAS-cog (13-Item) Total Score LS Mean (SE) of Change from Baseline ([1]; 5 mg QD, MMRM, Week 8): −0.64 (0.67)
ADAS-cog (13-Item) Total Score Difference From Placebo LS Mean (SE) of Difference ([1]; 5 mg QD, MMRM, Week 12): 0.15 (1.04)
ADAS-cog (13-Item) Total Score LS Mean (SE) of Change from Baseline ([1]; 5 mg QD, MMRM, Week 12): −0.99 (0.73)
ADAS-cog (13-Item) Total Score Observed Mean (SD) Final ([1]; 5 mg QD): 35.92 (12.07)
ADAS-cog (13-Item) Total Score Difference From Placebo LS Mean (SE) of Difference [1, 5]: −1.83 (1.05)
ADAS-cog (13-Item) Total Score LS Mean (SE) of Change [1, 5]: −2.60 (0.75)
ADAS-cog (13-Item) Total Score Observed Mean (SD) change ([1]; 25 mg QD, Change to Week 4): −2.38 (4.72)
ADAS-cog (13-Item) Total Score Observed Mean (SD) change ([1]; 25 mg QD, Change to Week 8): −2.78 (6.05)
ADAS-cog (13-Item) Total Score Observed Mean (SD) change ([1]; 25 mg QD, Change to Week 12): −2.89 (6.77)
ADAS-cog (13-Item) Total Score Difference From Placebo LS Mean (SE) of Difference ([1]; 25 mg QD, MMRM, Week 4): −2.13 (0.75)
ADAS-cog (13-Item) Total Score LS Mean (SE) of Change from Baseline ([1]; 25 mg QD, MMRM, Week 4): −2.13 (0.53)
ADAS-cog (13-Item) Total Score Difference From Placebo LS Mean (SE) of Difference ([1]; 25 mg QD, MMRM, Week 8): −2.06 (0.98)
ADAS-cog (13-Item) Total Score LS Mean (SE) of Change from Baseline ([1]; 25 mg QD, MMRM, Week 8): −2.42 (0.70)
ADAS-cog (13-Item) Total Score Difference From Placebo LS Mean (SE) of Difference ([1]; 25 mg QD, MMRM, Week 12): −1.61 (1.08)
ADAS-cog (13-Item) Total Score LS Mean (SE) of Change from Baseline ([1]; 25 mg QD, MMRM, Week 12): −2.74 (0.77)
ADAS-cog (13-Item) Total Score Observed Mean (SD) Final ([1]; 25 mg QD): 38.08 (13.81)
ADAS-cog (11-Item) Total Score Difference From Placebo LS Mean (SE) of Difference [2, 4]: −0.08
ADAS-cog (11-Item) Total Score LS Mean (SE) of Change [2, 4]: −0.76 (0.64)
ADAS-cog (11-Item) Total Score Observed Mean (SD) change ([2]; 5 mg QD, Change to Week 4): −0.36 (4.01)
ADAS-cog (11-Item) Total Score Observed Mean (SD) change ([2]; 5 mg QD, Change to Week 8): −0.58 (4.83)
ADAS-cog (11-Item) Total Score Observed Mean (SD) change ([2]; 5 mg QD, Change to Week 12): −1.01 (5.50)
ADAS-cog (11-Item) Total Score Difference From Placebo LS Mean (SE) of Difference ([2]; 5 mg QD, MMRM, Week 4): 0.03 (0.65)
ADAS-cog (11-Item) Total Score LS Mean (SE) of Change from Baseline ([2]; 5 mg QD, MMRM, Week 4): −0.06 (0.47)
ADAS-cog (11-Item) Total Score Difference From Placebo LS Mean (SE) of Difference ([2]; 5 mg QD, MMRM, Week 8): 0.07 (0.81)
ADAS-cog (11-Item) Total Score LS Mean (SE) of Change from Baseline ([2]; 5 mg QD, MMRM, Week 8): −0.49 (0.57)
ADAS-cog (11-Item) Total Score Difference From Placebo LS Mean (SE) of Difference ([2]; 5 mg QD, MMRM, Week 12): 0.03 (0.90)
ADAS-cog (11-Item) Total Score LS Mean (SE) of Change from Baseline ([2]; 5 mg QD, MMRM, Week 12): −0.80 (0.64)
ADAS-cog (11-Item) Total Score Observed Mean (SD) Final ([2]; 5 mg QD): 24.30 (10.50)
cognition relative to placebo, ADAS-cog (11-item) MMRM (in words) ([2]; 5 mg, over the 12 weeks): no improvement in cognition relative to placebo
cognition relative to placebo, ADAS-cog (11-item) MMRM (in words) ([2]; 25 mg): trend toward statistical significance at Weeks 4 and 8 in cognitive improvement
ADAS-cog (11-Item) Total Score Difference From Placebo LS Mean (SE) of Difference [2, 5]: −1.19
ADAS-cog (11-Item) Total Score LS Mean (SE) of Change [2, 5]: −1.86 (0.64)
ADAS-cog (11-Item) Total Score Observed Mean (SD) change ([2]; 25 mg QD, Change to Week 4): −1.18 (4.29)
ADAS-cog (11-Item) Total Score Observed Mean (SD) change ([2]; 25 mg QD, Change to Week 8): −1.94 (5.12)
ADAS-cog (11-Item) Total Score Observed Mean (SD) change ([2]; 25 mg QD, Change to Week 12): −2.12 (5.53)
ADAS-cog (11-Item) Total Score Difference From Placebo LS Mean (SE) of Difference ([2]; 25 mg QD, MMRM, Week 4): −0.84 (0.65)
ADAS-cog (11-Item) Total Score LS Mean (SE) of Change from Baseline ([2]; 25 mg QD, MMRM, Week 4): −0.94 (0.46)
ADAS-cog (11-Item) Total Score Difference From Placebo LS Mean (SE) of Difference ([2]; 25 mg QD, MMRM, Week 8): −1.11 (0.82)
ADAS-cog (11-Item) Total Score LS Mean (SE) of Change from Baseline ([2]; 25 mg QD, MMRM, Week 8): −1.67 (0.58)
ADAS-cog (11-Item) Total Score Difference From Placebo LS Mean (SE) of Difference ([2]; 25 mg QD, MMRM, Week 12): −1.14 (0.91)
ADAS-cog (11-Item) Total Score LS Mean (SE) of Change from Baseline ([2]; 25 mg QD, MMRM, Week 12): −1.97 (0.65)
ADAS-cog (11-Item) Total Score Observed Mean (SD) Final ([2]; 25 mg QD): 26.61 (12.09)
efficacy (in words) ([2]; 25 mg dose, 12 weeks): Evidence for efficacy
efficacy in treatment of core symptoms of Alzheimer's disease in human patients (summary in words) [2]: signal for efficacy
efficacy in treatment of core symptoms of Alzheimer's disease in human patients (summary in words) ([2]; listed as ABT-126): statistically significant efficacy compared to placebo
tolerability in subjects with AD ([3]; 5 mg and 25 mg QD (doses up to 25 mg QD), 12 weeks): generally well tolerated
changes in vital signs, ECG parameters or laboratory assessments ([3]; 5 mg and 25 mg QD, 12 weeks): no consistent clinically meaningful changes
serious adverse events considered by the investigator to be related ([3]; 5 mg and 25 mg QD, 12 weeks): none that were considered by the investigator to be related
dose dependence of adverse events ([3]; 25 mg group): no evidence for a dose-dependent increase in adverse events
